The text below walks through data of patent publication US20090062337A1, “Treatment of Microbial Infections” (WYSIS TECHNOLOGY FOUNDATION, INC., priority 2007, published 2009).

The subject of this experiment is Burkholderia cepacia. Briefly: MIC against Burkholderia cepacia. It is filed as cell-based. Conditions: Table 2; comparison of compounds against Burkholderia cepacia.

≈ marks a conversion by molar mass, not a printed value.

As a reminder, the MIC is the lowest concentration that inhibits growth of the organism. Read a low MIC as greater potency. `Oc1ccc2ccccc2n1` [2-hydroxyquinolone] displayed an MIC of over 128 mg/L.
For `Nc1ccnc2ccccc12` [4-aminoquinoline] the value was 40 mg/L (≈ 277 µM).
